Test results reported in BigSolDB 2.1.

O=C1/C(=C/c2ccc(O)cc2)CCC/C1=C\c1ccc(O)cc1
solubility (mole fraction)
Conditions	in 1,4-dioxane	in DMF	in DMSO	in THF	in acetic acid	in acetone	in ethyl acetate	in methanol	in n-butanol	in n-propanol
299.15 K	0.0074	0.0332	0.0112	0.023	0.0032	0.0049	0.0021	0.0034	0.0134	0.0013
303.15 K	0.0085	0.0388	0.0132	0.0256	0.0034	0.0061	0.0031	0.0041	0.0142	0.0023
308.15 K	0.0101	0.0458	0.0156	0.0281	0.0036	0.0073	0.004	0.0051	0.0152	0.0036
313.15 K	0.0115	0.0556	0.0251	0.0319	0.0039	0.0093	0.0053	0.0066	0.0164	0.0056
318.15 K	0.0135	0.0658	0.0371	0.0387	0.0044	0.0114	0.0069	0.0086	0.0178	0.0086
323.15 K	0.0153	0.0816	0.0528	0.0461	0.0052	0.0128	0.0102	0.0102	0.021	0.0123
328.15 K	0.0172	0.106	0.0742	0.0527	0.0063	0.0147	0.0136	0.0129	0.0235	0.0169
